Target: SAE1 (Homo sapiens (Human), UniProt Q9UBE0+Q9UBT2)
Experiment: SAE High Throughput Biochemical Assay (HTRF), 15 min preincubation
Settings: read-out: 15 min preincubation HTRF IC50 (μM) Ave, SAE1 12.5 nM, ATP 100 μM
Protocol: Assay buffer was prepared [50 mM HEPES, pH 7.5, 0.1% BSA and 10 mM MgCl2] as was the Stop Buffer [100 mM HEPES, pH 7.5, 0.05% Tween20, and 410 mM KF]. The 2×Reaction Buffer [80 nM SUMO-GST, 80 nM UBC9-His, 200 μM ATP and diluted in Assay Buffer] and Antibody Reaction Mix [13.34 nM anti-GSTXL665, 1.66 nM anti-His EuK and Diluted in Stop Buffer] were also prepared. Compounds were dissolved at 200×in DMSO in a 384-well plate. Serial dilutions were performed in DMSO for each compound, and then each concentration was diluted another 50-fold in Assay Buffer, to 4× the final concentration. 2.5 μL of each concentration was transferred into its own well in a 384-well plate. SAE1 was then diluted to 4× in Assay Buffer, and 2.5 μL of 4×SAE1 was mixed into each compound-containing well. After incubating for 15 minutes at RT, 5 μL of 2×Reaction Buffer was mixed into every well. Then after another 45 minutes at RT, 10 μL of Antibody Reaction Mix was added and mixed into every well. This plate was then read on an HTRF-compatible plate reader after 2 hours at RT, and again after sitting at RT overnight. [Final Component Concentrations: SAE1: 12.5 nM; SUMO-GST: 40 nM; UBC9-His: 40 nM; Anti-GST-XL665: 6.67 nM; Anti-His-EuK: 0.83 nM; and ATP: 100 μM] Alternatively, the compounds are tested at a single concentration of 25 micromolar and the percent of control is measured.

SAE1, sequence (Q9UBE0 whole entry): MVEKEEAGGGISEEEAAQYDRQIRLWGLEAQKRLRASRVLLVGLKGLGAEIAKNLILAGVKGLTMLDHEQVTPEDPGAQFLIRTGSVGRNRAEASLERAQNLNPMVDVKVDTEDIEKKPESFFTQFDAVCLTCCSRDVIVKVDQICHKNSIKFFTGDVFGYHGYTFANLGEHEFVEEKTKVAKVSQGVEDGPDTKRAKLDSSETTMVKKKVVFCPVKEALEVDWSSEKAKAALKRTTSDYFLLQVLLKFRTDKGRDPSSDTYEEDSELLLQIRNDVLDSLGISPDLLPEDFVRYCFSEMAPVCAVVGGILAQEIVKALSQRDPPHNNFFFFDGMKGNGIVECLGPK
SAE1, sequence (Q9UBT2 whole entry): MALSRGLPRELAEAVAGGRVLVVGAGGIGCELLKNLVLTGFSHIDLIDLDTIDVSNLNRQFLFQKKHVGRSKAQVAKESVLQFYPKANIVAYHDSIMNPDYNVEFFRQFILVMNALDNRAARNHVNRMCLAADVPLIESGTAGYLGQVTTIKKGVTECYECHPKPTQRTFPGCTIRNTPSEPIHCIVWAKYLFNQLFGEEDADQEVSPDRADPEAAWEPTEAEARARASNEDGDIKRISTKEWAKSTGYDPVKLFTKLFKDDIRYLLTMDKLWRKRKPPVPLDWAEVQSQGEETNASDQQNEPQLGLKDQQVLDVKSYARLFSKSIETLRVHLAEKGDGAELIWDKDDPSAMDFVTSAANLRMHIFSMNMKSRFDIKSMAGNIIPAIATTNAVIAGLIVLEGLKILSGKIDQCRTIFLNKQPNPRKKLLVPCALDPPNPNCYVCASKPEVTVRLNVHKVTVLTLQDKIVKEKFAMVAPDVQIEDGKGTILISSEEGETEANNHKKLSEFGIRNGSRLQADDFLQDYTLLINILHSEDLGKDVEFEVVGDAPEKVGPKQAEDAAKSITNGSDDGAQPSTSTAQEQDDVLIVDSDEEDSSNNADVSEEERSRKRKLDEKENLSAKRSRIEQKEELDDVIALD

| SMILES | IC50 |
| --- | --- |
| CCOC(=O)CCn1cc(-c2ccccc2[C@@H]2CN(C(=O)/C=C/CN(C)C)Cc3sc(C#N)cc32)c(C(F)(F)F)n1 [Example 170, Ethyl (S,E)-3-(4-(2-(2-cyano-6-(4-(dimethylamino)but-2-enoyl)-4,5,6,7-tetrahydrothieno[2,3-c]pyridin-4-yl)phenyl)-3-(trifluoromethyl)-1H pyrazol-1-yl)propanoate] | 10.2 µM |
| CCOC(=O)CCCn1cc(-c2ccccc2[C@@H]2CN(C(=O)/C=C/CN(C)C)Cc3sc(C#N)cc32)c(C(F)(F)F)n1 [Example 171] | 12 µM |
| CN(C)C/C=C/C(=O)N1Cc2sc(C#N)cc2[C@H](c2ccccc2-c2cn(CC(=O)O)nc2C(F)(F)F)C1 [Example 172, (S, E)-2-(4-(2-(2-Cyano-6-(4-(dimethylamino)but-2-enoyl)-4,5,6,7-tetrahydrothieno[2,3-c]pyridin-4-yl)phenyl)-3-(trifluoromethyl)-1H pyrazol-1-yl)acetic acid] | 21.1 µM |
| CN(C)C/C=C/C(=O)N1Cc2sc(C#N)cc2[C@H](c2ccccc2-c2cn(CCC(=O)O)nc2C(F)(F)F)C1 [Example 173, (S, E)-3-(4-(2-(2-Cyano-6-(4-(dimethylamino)but-2-enoyl)-4,5,6,7-tetrahydrothieno[2,3-c]pyridin-4-yl)phenyl)-3-(trifluoromethyl)-1H-pyrazol-1-yl)propanoic acid] | 17.3 µM |
| CN(C)C/C=C/C(=O)N1Cc2sc(C#N)cc2[C@H](c2ccccc2-c2cn(CCCC(=O)O)nc2C(F)(F)F)C1 [Example 174, (S, E)-4-(4-(2-(2-Cyano-6-(4-(dimethylamino)but-2-enoyl)-4,5,6,7-tetrahydrothieno[2,3-c]pyridin-4-yl)phenyl)-3-(trifluoromethyl)-1H pyrazol-1-yl)butanoic acid] | 12.5 µM |
| CN(C)C/C=C/C(=O)N1Cc2sc(C#N)cc2[C@H](c2ccccc2-c2cn(CCc3ccccn3)nc2C(F)(F)F)C1 [Example 176, (S, E)-6-(4-(Dimethylamino)but-2-enoyl)-4-(2-(1-(2-(pyridin-2-yl)ethyl)-3-(trifluoromethyl)-1H-pyrazol-4-yl)phenyl)-4,5,6,7-tetrahydrothieno[2,3-c]pyridine-2-carbonitrile] | 19.9 µM |
| CN(C)C/C=C/C(=O)N1Cc2sc(C#N)cc2[C@H](c2ccccc2-c2cn(CCc3ccncc3)nc2C(F)(F)F)C1 [Example 177, (S,E)-6-(4-(Dimethylamino)but-2-enoyl)-4-(2-(1-(2-(pyridin-4-yl)ethyl)-3-(trifluoromethyl)-1H pyrazol-4-yl)phenyl)-4,5,6,7-tetrahydrothieno[2,3-c]pyridine-2-carbonitrile] | 6.3 µM |
| CCn1cc(-c2c(C3CN(C(=O)/C=C/CN(C)C)Cc4sc(C#N)cc43)ccc(F)c2F)c(C(F)(F)F)n1 (centres unmarked) [Example 184, (E)-6-(4-(Dimethylamino)but-2-enoyl)-4-(2-(1-ethyl-3-(trifluoromethyl)-1 H-pyrazol-4-yl)-3,4-difluorophenyl)-4,5,6,7-tetrahydrothieno[2,3-c]pyridine-2-carbonitrile] | 8.37 µM |
| CCn1cc(-c2c(C3CN(C(=O)/C=C/CN(C)C)Cc4sc(C#N)cc43)ccc(F)c2Cl)c(C(F)(F)F)n1 (centres unmarked) [Example 187, (E)-4-(3-Chloro-2-(1-ethyl-3-(trifluoromethyl)-1 H-pyrazol-4-yl)-4-fluorophenyl)-6-(4-(dimethylamino)but-2-enoyl)-4,5,6,7-tetrahydrothieno[2,3-c]pyridine-2-carbonitrile] | 8.1 µM |
| CCn1cc(-c2cc(C(F)F)ccc2C2CN(C(=O)/C=C/CN(C)C)Cc3sc(C#N)cc32)c(C(F)(F)F)n1 (centres unmarked) [Example 188, (E)-4-(4-(Difluoromethyl)-2-(1-ethyl-3-(trifluoromethyl)-1 H-pyrazol-4-yl)phenyl)-6-(4-(dimethylamino)but-2-enoyl)-4,5,6,7-tetrahydrothieno[2,3-c]pyridine-2-carbonitrile] | 18 µM |
| CCn1cc(-c2nc(N)ccc2C2CN(C(=O)/C=C/CN(C)C)Cc3sc(C#N)cc32)c(C(F)(F)F)n1 (centres unmarked) [Example 192, (E)-4-(6-Amino-2-(1-ethyl-3-(trifluoromethyl)-1 H-pyrazol-4-yl)pyridin-3-yl)-6-(4-(dimethylamino)but-2-enoyl)-4,5,6,7-tetrahydrothieno[2,3-c]pyridine-2-carbonitrile] | > 25 µM |
| CCn1cc(-c2cc(CO)ccc2C2CN(C(=O)/C=C/CN(C)C)Cc3sc(C#N)cc32)c(C(F)(F)F)n1 (centres unmarked) [Example 194, (E)-6-(4-(Dimethylamino)but-2-enoyl)-4-(2-(1-ethyl-3-(trifluoromethyl)-1 H-pyrazol-4-yl)-4-(hydroxymethyl)phenyl)-4,5,6,7-tetrahydrothieno[2,3-c]pyridine-2-carbonitrile] | > 25 µM |
| CCn1cc(-c2cc(NC(=O)NC)ccc2C2CN(C(=O)/C=C/CN(C)C)Cc3sc(C#N)cc32)c(C(F)(F)F)n1 (centres unmarked) [Example 195, (E)-1-(4-(2-Cyano-6-(4-(dimethylamino)but-2-enoyl)-4,5,6,7-tetrahydrothieno[2,3-c]pyridin-4-yl)-3-(1-ethyl-3-(trifluoromethyl)-1 H-pyrazol-4-yl)phenyl)-3-methylurea] | 11.3 µM |
| CCn1cc(-c2ccc(N)cc2C2CN(C(=O)/C=C/CN(C)C)Cc3sc(C#N)cc32)c(C(F)(F)F)n1 (centres unmarked) [Example 196, (E)-4-(5-Amino-2-(1-ethyl-3-(trifluoromethyl)-1 H-pyrazol-4-yl)phenyl)-6-(4-(dimethylamino)but-2-enoyl)-4,5,6,7-tetrahydrothieno[2,3-c]pyridine-2-carbonitrile] | > 25 µM |
| CCn1cc(-c2cc(NC(C)=O)ccc2C2CN(C(=O)/C=C/CN(C)C)Cc3sc(C#N)cc32)c(C(F)(F)F)n1 (centres unmarked) [Example 197, (E)-N-(4-(2-Cyano-6-(4-(dimethylamino)but-2-enoyl)-4,5,6,7-tetrahydrothieno[2,3-c]pyridin-4-yl)-3-(1-ethyl-3-(trifluoromethyl)-1 H-pyrazol-4-yl)phenyl)acetamide] | 15.2 µM |
| CCn1cc(-c2c(C3CN(C(=O)/C=C/CN(C)C)Cc4sc(C#N)cc43)cnn2C)c(C(F)(F)F)n1 (centres unmarked) [Example 198, (E)-6-(4-(Dimethylamino)but-2-enoyl)-4-(1′-ethyl-2-methyl-3′-(trifluoromethyl)-1′H,2H-[3,4′-bipyrazol]-4-yl)-4,5,6,7-tetrahydrothieno[2,3-c]pyridine-2-carbonitrile] | > 25 µM |
| CCn1cc(-c2c(C3CN(C(=O)/C=C/CN(C)C)Cc4sc(C#N)cc43)ccnc2F)c(C(F)(F)F)n1 (centres unmarked) [Example 202, (E)-6-(4-(Dimethylamino)but-2-enoyl)-4-(3-(1-ethyl-3-(trifluoromethyl)-1 H-pyrazol-4-yl)-2-fluoropyridin-4-yl)-4,5,6,7-tetrahydrothieno[2,3-c]pyridine-2-carbonitrile] | 24.9 µM |
| CCn1cc(-c2cccc(O)c2C2CN(C(=O)/C=C/CN(C)C)Cc3sc(C#N)cc32)c(C(F)(F)F)n1 (centres unmarked) [Example 204, (E)-6-(4-(Dimethylamino)but-2-enoyl)-4-(2-(1-ethyl-3-(trifluoromethyl)-1 H-pyrazol-4-yl)-6-hydroxyphenyl)-4,5,6,7-tetrahydrothieno[2,3-c]pyridine-2-carbonitrile] | > 25 µM |
| CCn1cc(-c2ccc(O)cc2C2CN(C(=O)/C=C/CN(C)C)Cc3sc(C#N)cc32)c(C(F)(F)F)n1 (centres unmarked) [Example 205, (E)-6-(4-(Dimethylamino)but-2-enoyl)-4-(2-(1-ethyl-3-(trifluoromethyl)-1 H-pyrazol-4-yl)-5-hydroxyphenyl)-4,5,6,7-tetrahydrothieno[2,3-c]pyridine-2-carbonitrile] | > 25 µM |
| CCn1cc(-c2sccc2C2CN(C(=O)/C=C/CN(C)C)Cc3sc(C#N)cc32)c(C(F)(F)F)n1 (centres unmarked) [Example 207, (E)-6-(4-(Dimethylamino)but-2-enoyl)-4-(2-(1-ethyl-3-(trifluoromethyl)-1H pyrazol-4-yl)thiophen-3-yl)-4,5,6,7-tetrahydrothieno[2,3-c]pyridine-2-carbonitrile] | > 25 µM |
| CCn1cc(-c2cc(C)ccc2C2CN(C(=O)/C=C/CN(C)C)Cc3sc(C#N)cc32)c(C(F)(F)F)n1 (centres unmarked) [Example 210, (E)-6-(4-(Dimethylamino)but-2-enoyl)-4-(2-(1-ethyl-3-(trifluoromethyl)-1 H pyrazol-4-yl)-4-methylphenyl)-4,5,6,7-tetrahydrothieno[2,3-c]pyridine-2-carbonitrile] | 19.7 µM |
| CCn1cc(-c2cc(F)ccc2C2CN(C(=O)/C=C/CN(C)C)Cc3sc(C#N)cc32)c(C(F)(F)F)n1 (centres unmarked) [Example 211, (E)-6-(4-(Dimethylamino)but-2-enoyl)-4-(2-(1-ethyl-3-(trifluoromethyl)-1 H-pyrazol-4 yl)-4-fluorophenyl)-4,5,6,7-tetrahydrothieno[2,3-c]pyridine-2-carbonitrile] | 20.2 µM |
| CCn1cc(-c2cc(Cl)ccc2C2CN(C(=O)/C=C/CN(C)C)Cc3sc(C#N)cc32)c(C(F)(F)F)n1 (centres unmarked) [Example 212, (E)-4-(4-Chloro-2-(1-ethyl-3-(trifluoromethyl)-1 H-pyrazol-4-yl)phenyl)-6-(4-(dimethylamino)but-2-enoyl)-4,5,6,7-tetrahydrothieno[2,3-c]pyridine-2-carbonitrile] | 11.7 µM |
